Data on 1 compound can be found in US11590101B2, “Use of a composition comprising 7-hydroxymatairesinol” (LINNEA S.A., priority 2017, dated 2023).

Data set [1] has as its system rodent model of Parkinson's disease-like nigrostriatal neurodegeneration caused by stereotaxic injection of 6-OHDA. The data set is described as follows: Nigrostriatal damage evaluation by TH immunohistochemistry in 6-OHDA model. In kind it is in vivo, rat.
Data set [2] can be described thus: HMR plasma levels assay (LC-MS/MS). The class given is in vivo. To be noted: rat, oral, rats fed 4 weeks with 5% sucrose enriched food with HMR (10 mg/Kg per day), all active treatment groups. On the procedure:
Concentration of HMR and its major metabolite enterolactone was measured in plasma samples (50 μL) from rats fed for 4 weeks with 5% sucrose enriched food with HMR, using an LC-MS/MS system (AP14500 Qtrap ABSciex).
Calibration curves in the range from 0.1 ng/mL to 100 ng/mL were obtained from measurements on control samples containing the pure analytes, prepared from stock solutions of HMR and enterolactone in MeOH at the concentration of 1 mg/mL. Said stock solutions were diluted in acetonitrile (ACN) at a concentration of 250 μg/mL, then working solutions were prepared by sequential dilution in ACN.
45 μL of plasma and 5 μL of working solution were added to 300 μL of an ACN solution containing the internal standard catechin (conc. 200 ng/mL). After mixing, samples were centrifuged for 5 min at 3000 g at 5° C., and injected into LC-MS/MS.
The plasma samples from the in vivo treatment were prepared subjecting 50 μl of sample to centrifugation for 5 min at 3000 g at 5° C., and were injected into LC-MS/MS.
Calibration curves allowed determining, by comparison, the amount of each analytes in the plasma samples obtained from the rats of the study.

Data set [3] is described as follows: Oxidative stress evaluation (plasma GSH/GSSG, Glutathione assay kit). In kind it is in vivo, rat. The following applies: POST group; not reaching statistical significance. How it is done: Plasma levels of reduced (GSH) and oxidized (GSSG) glutathione were estimated by using a biochemical Glutathione assay kit (Cayman Chemical), as an index of antioxidant effect of HMR treatment.
Results were expressed as a GSH/GSSG ratio.
Since no significant difference in neuroinflammation was observed between vehicle-treated animals and animals that received HMR before the intra-striatal injection of 6-OHDA, oxidative stress was evaluated only in the groups treated with HMR after 6-OHDA infusion.

Data set [4] concerns microglia in the lesioned SNc. The data set is described as follows: Analysis of microglia polarization (CD32+ M1 / CD206+ M2). The class given is in vivo, rat. The following applies: POST group; vehicle mainly M1, no M2 detected. How it is done:
The analysis of microglia polarization was performed by evaluating the percentage of CD32+ and CD206+ cells, respectively M1 and M2 phenotypes marker, of the total microglia cells in the lesioned SNc, using respectively CD32 or CD206 (Santa Cruz, 1:300) antibodies.
Since no significant differences in microglial activation were observed between vehicle-treated animals and animals that received HMR before the intra-striatal injection of 6-OHDA, microglia polarization was evaluated only in the groups treated with HMR after 6-OHDA infusion.

The subject of data set [5] is microglia in the lesioned SNc. In words: Neuroinflammation evaluation through microglia activation assessment (CD11b staining of lesioned SNc). In kind it is in vivo, rat. Also on record: key to Colburn's score (microglia morphology): Resting stage (score 0): microglial cells are ramified, well spaced-out, with a small cell body.; Stage 1 (score +): microglial cells are ramified, with a decreased intercellular space.; Stage 2 (score ++): microglial cells show a loss of ramification and increased density.; Stage 3 (score +++): microglial cells show short and think ramifications. The following applies: for Colburn's score (microglia morphology): control group ++. How it is done: The evaluation of the 6-OHDA induced neuroinflammation was carried out via immunofluorescent staining of coronal SNc sections of both HMR-treated and control animals.
Microglia activation was assessed by observing sections of the lesioned SNc stained for CD11 b, under low and medium magnification (20×-40×), both quantitatively, by counting the microglial cells in the lesioned SNc, and qualitatively, analysing the morphological changes of the cells.
Mouse anti CD11b (MCA275R, Serotec, 1:300) primary antibody was used to assess microglia activation and density in the SNc. Anti-TH primary antibody was added for localization and cell count. Goat anti-mouse AlexaFluor488 and goat anti-rabbit AlexaFluor594 (Life Sciences, 1:300) were used as secondary antibodies.
Cell count was performed by analysing three different SNc sections, chosen according to rostro-caudal coordinates.
Morphological changes mirroring the state of activation were scored according to the Colburn scale. Cell density was assessed by counting CD11 b+ cells from a stack of 16 pictures (in a 0.04 mm^2 frame, 1 μm-thick, 40× magnification) taken from three discrete areas of the same SNc section.
Colburn's scale takes into account four activation stages, which differ for the cells morphology and density, and are summarized below.
Resting stage (score 0): microglial cells are ramified, well spaced-out, with a small cell body.
Stage 1 (score +): microglial cells are ramified, with a decreased intercellular space.
Stage 2 (score ++): microglial cells show a loss of ramification and increased density.
Stage 3 (score +++): microglial cells show short and think ramifications.

The nature of data set [6]: Food consumption and body weight monitoring. The class given is in vivo, rat. The following applies: monitored daily throughout the experiments. The source says:
Food consumption and body weight changes were monitored daily.

[7] abbreviates: PRE group, day 28 post-surgery, same in HMR-treated and control animals.

Molecules are shown by their SMILES.

In the case of `COc1cc(CC2C(=O)OCC2C(O)c2ccc(O)c(OC)c2)ccc1O` (centres unmarked) [HMR, 7-hydroxymatairesinol], the “Reduction of TH+ terminal loss in lesioned striatum versus control” value in data set [1] (POST group: HMR 10 mg/Kg per day for 4 weeks after 6-OHDA, day 28, p<0.05) is listed as “about 32%”. In data set [1] (POST group: HMR 10 mg/Kg per day for 4 weeks after 6-OHDA, day 28, p=0.055), the “Reduction of the 6-OHDA induced loss of TH+ neurons in lesioned SNc versus vehicle” value is listed as “about 20%”. In addition, in data set [1] (setting [7]), the “TH+ neurons depletion in the SNc, lesioned side versus contralateral hemisphere” value was “up to 55%” and the “TH+ terminals loss in the striatum, lesioned side” value is ≤ 65%. The “Nigrostriatal damage (striatal or SNc level) versus vehicle-treated animals” value in data set [1] (PRE group: HMR 10 mg/Kg per day in food for 4 weeks before 6-OHDA) is “no differences in nigrostriatal damage”. The same compound showed a concentration at 4 weeks in data set [2] of 0.92 ± 0.74 ng/mL. The “Plasma GSH/GSSG ratio versus vehicle-treated animals” value in data set [3] is listed as “trend toward an increased GSH/GSSG ratio”. In data set [4], the “Microglia polarization phenotype (M1 CD32+ / M2 CD206+)” value is recorded as “mainly oriented toward the neuroprotective, M2 (CD11b+/CD206+) phenotype”. Besides, the “Colburn's score (microglia morphology)” value in data set [5] (POST group (HMR after 6-OHDA)) is listed as “+”. Moreover, in data set [5] (POST group, vehicle-treated group 750 cells/mm^2, significant decrease), the “Density of CD11b+ cells in the SNc” value is recorded as 550 cells/mm^2. Besides, the “Microglial cell count versus vehicle-treated animals” value in data set [5] (PRE group) is given as “no differences in the microglial cell count”. Also, the “Colburn's score (microglia morphology)” value in data set [5] (PRE group (HMR before 6-OHDA)) is “++”. For the same compound, the “Number of CD11b+ cells per mm^2 of SNc” value in data set [5] (PRE group, average, both HMR and vehicle groups) came to 750 cells/mm^2. Besides, the “Food intake or weight gain, treated versus untreated rats” value in data set [6] is “No differences”.
